Assay results from patent US20230104936A1, “TRPML MODULATORS” (Casma Therapeutics, Inc., priority 2019, published 2023).

test system: TFEB; assay: TFEB nuclear translocation assay, HeLa wt cells; format: cell-based; settings: Homo sapiens, HeLa, 2 h, 2 hrs compound treatment, Table 1 does not say HeLa wt or TRPML1 KO
Outline: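 TFEB translocation into the nucleus of HeLa wt cells is scored by high-content immunofluorescence after 2 hrs of compound treatment at 37° C, reported as AC50.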

SMILES	AC50 [µM]
COc1ccc(S(=O)(=O)Nc2ccccc2N2CC(N(C)c3ccc(F)cc3F)C2)cc1 [Compound A-188, N-(2-{3-[(2,4-difluorophenyl)(methyl)amino]azetidin-1-yl}phenyl)-4-methoxybenzene-1-sulfonamide]	≥ 10
COc1ccc(S(=O)(=O)Nc2ccccc2N2CCC(N(C)c3ccc(F)cc3F)CC2)cc1 [Compound A-189, N-(2-{4-[(2,4-difluorophenyl)(methyl)amino]piperidin-1-yl}phenyl)-4-methoxybenzene-1-sulfonamide]	≤ 2
CN(C)S(=O)(=O)c1ccc([S+]([O-])Cc2ccccc2N2CCC(c3ccc(Cl)cc3F)CC2)cc1 (stereo not drawn) [Compound A-190, 4-((2-(4-(4-chloro-2-fluorophenyl)piperidin-1-yl)benzyl)sulfinyl)-N,N-dimethylbenzenesulfonamide]	≤ 2
O=C(c1ccc(S(=O)(=O)Nc2ccccc2N2CCC(c3ccc(Cl)cc3F)CC2)cc1)C(F)(F)F [Compound A-191, N-{2-[4-(4-chloro-2-fluorophenyl)piperidin-1-yl]phenyl}-4-(2,2,2-trifluoroacetyl)benzene-1-sulfonamide]	2.01 to 8
COc1ccc(S(=O)(=O)Nc2ccncc2N2CCC(c3ncc(F)cc3F)CC2)cc1 [Compound A-192, N-{3-[4-(3,5-difluoropyridin-2-yl)piperidin-1-yl]pyridin-4-yl}-4-methoxybenzene-1-sulfonamide]	≥ 10
COc1ccc(S(=O)(=O)Nc2cnccc2N2CCC(c3ncc(F)cc3F)CC2)cc1 [Compound A-193, N-{4-[4-(3,5-difluoropyridin-2-yl)piperidin-1-yl]pyridin-3-yl}-4-methoxybenzene-1-sulfonamide]	≥ 10
COc1ccc(S(=O)(=O)Nc2ccccc2N2CCN(Cc3ccc(F)cc3F)CC2)cc1 [Compound A-194, N-(2-{4-[(2,4-difluorophenyl)methyl]piperazin-1-yl}phenyl)-4-methoxybenzene-1-sulfonamide]	≥ 10
COc1ccc(S(=O)(=O)Nc2ccccc2N2CCC(Cc3ccc(F)cc3F)CC2)cc1 [Compound A-195, N-(2-{4-[(2,4-difluorophenyl)methyl]piperidin-1-yl}phenyl)-4-methoxybenzene-1-sulfonamide]	2.01 to 8
COc1ccc(S(=O)(=O)Nc2ccccc2N2CCC(Oc3ccc(F)cc3F)CC2)cc1 [Compound A-196, N-{2-[4-(2,4-difluorophenoxy)piperidin-1-yl]phenyl}-4-methoxybenzene-1-sulfonamide]	≤ 2
COc1ccc(S(=O)(=O)Nc2ccccc2N2CCC(Cc3ccc(F)cc3F)C2)cc1 (stereo not drawn) [Compound A-197, N-(2-{3-[(2,4-difluorophenyl)methyl]pyrrolidin-1-yl}phenyl)-4-methoxybenzene-1-sulfonamide]	≥ 10
CCS(=O)(=O)c1ccc(S(=O)(=O)Nc2ccccc2N2CCC(c3c(F)cccc3F)CC2)cc1 [Compound A-198, N-{2-[4-(2,6-difluorophenyl)piperidin-1-yl]phenyl}-4-(ethanesulfonyl)benzene-1-sulfonamide]	≤ 2
COc1ccc(S(=O)(=O)Nc2ccccc2N(C)c2ccc(F)cc2F)cc1 [Compound A-199, N-{2-[(2,4-difluorophenyl)(methyl)amino]phenyl}-4-methoxybenzene-1-sulfonamide]	≥ 10
COc1ccc(S(=O)(=O)Nc2ccccc2N2CC(Oc3ccc(F)cc3F)C2)cc1 [Compound A-200, N-{2-[3-(2,4-difluorophenoxy)azetidin-1-yl]phenyl}-4-methoxybenzene-1-sulfonamide]	2.01 to 8
COc1ccc(S(=O)(=O)Nc2ccccc2N2CCC(N(C)c3ccc(F)cc3F)C2)cc1 (stereo not drawn) [Compound A-201, N-(2-{3-[(2,4-difluorophenyl)(methyl)amino]pyrrolidin-1-yl}phenyl)-4-methoxybenzene-1-sulfonamide]	2.01 to 8
COc1ccc(S(=O)(=O)Nc2ccccc2N2CCC(Oc3ccc(F)cc3F)C2)cc1 (stereo not drawn) [Compound A-202, N-{2-[3-(2,4-difluorophenoxy)pyrrolidin-1-yl]phenyl}-4-methoxybenzene-1-sulfonamide]	≥ 10
